Results as given in patent publication US20230330027A1, “PHARMACEUTICAL PREPARATION” (MERCK PATENT GMBH, priority 2020, published 2023).

Columns and labels:
[1] = Particle size distribution by laser diffraction (Malvern Mastersizer 2000); type: physicochemical; conditions: no unit in Table 4; d values in micrometers, volume distribution
Experimental: The particle size distribution of 8-(1,3-Dimethyl-1H-pyrazol-4-yl)-1-(Sa)-(3-fluoro-5-methoxy-pyridin-4-yl)-7-methoxy-3-methyl-1,3-dihydro-imidazo[4,5-c]quinolin-2-one is measured by laser diffraction on a Malvern Mastersizer 2000 (wet method using Hydro 2000S; sample amount of 100 mg dispersed in 5 ml silicone oil; stirrer speed 2000 rpm, no sonication, measuring time of 7.5 s; obscuration of 10-15%). The d values refer to the particle size distribution in micrometers […] whereby the dl 0 value refers to the particle diameter in micrometers at which 10 percent of the volume distribution of the particles are smaller than such value, the d50 value refers to the particle diameter in micrometers at which 50 percent of the volume distribution of the particles are smaller than such value and the d90 value refers to the particle diameter in micrometers at which 90 percent of the volume distribution of the particles are smaller than such value.

[2] = Thermodynamic stability of anhydrous polymorphic forms; type: physicochemical; conditions: among anhydrous Forms A1, A2, A3
[3] = test system: ATM pCHK2 pathway; experiment: Inhibition of the ATM pCHK2 pathway; type: cell-based; conditions: compared to the (Ra) atropisomer and the unseparated compound
[4] = Microsomal clearance; type: in vitro ADME; conditions: compared to the (Ra) atropisomer and the unseparated compound
[5] = target: phosphodiesterase (PDE) 2A1 (Homo sapiens, UniProt O00408); experiment: Inhibition of PDE2A1; type: biochemical; conditions: compared to the (Ra) atropisomer and the unseparated compound
Sequence of phosphodiesterase (PDE) 2A1 (O00408 1-920 isoform O00408-2): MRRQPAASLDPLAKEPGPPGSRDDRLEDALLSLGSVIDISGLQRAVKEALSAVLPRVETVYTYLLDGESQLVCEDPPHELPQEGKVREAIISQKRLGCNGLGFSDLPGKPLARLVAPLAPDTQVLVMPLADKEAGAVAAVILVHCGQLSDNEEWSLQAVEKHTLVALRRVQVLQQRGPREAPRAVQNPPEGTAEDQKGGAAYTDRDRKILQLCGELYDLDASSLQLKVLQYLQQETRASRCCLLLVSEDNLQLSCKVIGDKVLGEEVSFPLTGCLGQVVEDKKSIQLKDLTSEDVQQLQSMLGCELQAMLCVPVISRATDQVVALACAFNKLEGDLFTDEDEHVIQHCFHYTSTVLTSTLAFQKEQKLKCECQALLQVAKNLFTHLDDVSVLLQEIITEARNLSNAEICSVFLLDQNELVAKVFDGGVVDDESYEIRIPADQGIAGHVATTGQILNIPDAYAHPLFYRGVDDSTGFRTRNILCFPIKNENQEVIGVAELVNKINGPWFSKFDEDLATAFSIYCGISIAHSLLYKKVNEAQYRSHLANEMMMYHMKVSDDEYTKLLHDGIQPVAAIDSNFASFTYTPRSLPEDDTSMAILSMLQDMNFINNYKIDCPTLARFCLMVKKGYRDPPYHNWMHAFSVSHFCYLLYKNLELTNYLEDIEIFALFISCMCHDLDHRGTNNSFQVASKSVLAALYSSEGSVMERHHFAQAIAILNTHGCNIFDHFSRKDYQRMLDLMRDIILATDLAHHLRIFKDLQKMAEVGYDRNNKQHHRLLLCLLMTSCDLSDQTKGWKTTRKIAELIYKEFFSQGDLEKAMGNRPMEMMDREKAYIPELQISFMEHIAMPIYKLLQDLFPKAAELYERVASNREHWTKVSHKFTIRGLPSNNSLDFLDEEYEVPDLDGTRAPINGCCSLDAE

[6] = target: PDE4A1A (Homo sapiens, UniProt P27815); experiment: Inhibition of PDE4A1A; type: biochemical; conditions: compared to the (Ra) atropisomer and the unseparated compound
Sequence of PDE4A1A (P27815 1-647 isoform P27815-4): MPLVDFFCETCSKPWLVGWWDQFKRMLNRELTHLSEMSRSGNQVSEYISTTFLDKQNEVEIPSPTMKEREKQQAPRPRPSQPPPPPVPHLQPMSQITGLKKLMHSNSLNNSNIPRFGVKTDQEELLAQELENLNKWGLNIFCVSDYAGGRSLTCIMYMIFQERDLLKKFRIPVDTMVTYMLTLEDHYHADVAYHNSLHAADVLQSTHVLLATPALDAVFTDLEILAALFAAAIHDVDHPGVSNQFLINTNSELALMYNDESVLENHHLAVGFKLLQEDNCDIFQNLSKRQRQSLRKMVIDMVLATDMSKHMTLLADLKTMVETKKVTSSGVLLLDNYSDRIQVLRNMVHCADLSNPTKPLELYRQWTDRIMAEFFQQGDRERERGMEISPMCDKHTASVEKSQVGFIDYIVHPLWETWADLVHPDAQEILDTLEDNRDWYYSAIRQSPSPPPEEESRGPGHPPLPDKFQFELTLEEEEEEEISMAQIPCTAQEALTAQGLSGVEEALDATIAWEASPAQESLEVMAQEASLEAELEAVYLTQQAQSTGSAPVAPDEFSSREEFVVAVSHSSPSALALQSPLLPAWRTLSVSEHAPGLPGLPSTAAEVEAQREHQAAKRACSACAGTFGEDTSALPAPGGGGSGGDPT

[7] = target: PDE4D2 (Homo sapiens, UniProt Q08499); experiment: Inhibition of PDE4D2; type: biochemical; conditions: compared to the (Ra) atropisomer and the unseparated compound
Sequence of PDE4D2 (Q08499 303-809 limits assumed): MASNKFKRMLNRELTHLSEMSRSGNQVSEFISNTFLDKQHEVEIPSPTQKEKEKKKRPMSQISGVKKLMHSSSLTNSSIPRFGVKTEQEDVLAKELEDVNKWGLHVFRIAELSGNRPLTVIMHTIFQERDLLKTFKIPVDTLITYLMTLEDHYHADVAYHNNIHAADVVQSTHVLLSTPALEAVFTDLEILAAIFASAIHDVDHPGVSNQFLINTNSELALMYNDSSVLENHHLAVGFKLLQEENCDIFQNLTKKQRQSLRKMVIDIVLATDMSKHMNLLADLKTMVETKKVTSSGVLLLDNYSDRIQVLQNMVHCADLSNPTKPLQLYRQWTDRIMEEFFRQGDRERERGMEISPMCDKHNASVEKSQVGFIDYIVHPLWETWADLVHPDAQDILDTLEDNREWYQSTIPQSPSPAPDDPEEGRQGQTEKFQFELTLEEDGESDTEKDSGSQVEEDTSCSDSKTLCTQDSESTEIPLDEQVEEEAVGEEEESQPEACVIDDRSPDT

[8] = Selectivity compared to the other atropisomer and the mixture; conditions: compared to the (Ra) atropisomer and the unseparated compound

| SMILES | Dv10 [1] | Dv50 [1] | Dv90 [1] | Thermodynamic stability of the solid form [2] | Inhibition of the ATM pCHK2 pathway [3] | Microsomal clearance values [4] | Inhibition of phosphodiesterase (PDE) 2A1 [5] | Inhibition of PDE4A1A [6] | Inhibition of PDE4D2 [7] | Selectivity [8] |
| --- | --- | --- | --- | --- | --- | --- | --- | --- | --- | --- |
| COc1cc2ncc3c(c2cc1-c1cn(C)nc1C)n(-c1c(F)cncc1OC)c(=O)n3C (atropisomer, axis not shown; (Sa)) [Compound 1 Anhydrous Form A2, 8-(1,3-Dimethyl-1H-pyrazol-4-yl)-1-(Sa)-(3-fluoro-5-methoxy-pyridin-4-yl)-7-methoxy-3-methyl-1,3-dihydro-imidazo[4,5-c]quinolin-2-one] | 9 µm | 63 µm | 599 µm | thermodynamically most stable anhydrous form | – | – | – | – | – | – |
| COc1cc2ncc3c(c2cc1-c1cn(C)nc1C)n(-c1c(F)cncc1OC)c(=O)n3C (atropisomer, axis not shown; (Sa)) [Compound 1 Anhydrous Form A2 OPT, 8-(1,3-Dimethyl-1H-pyrazol-4-yl)-1-(Sa)-(3-fluoro-5-methoxy-pyridin-4-yl)-7-methoxy-3-methyl-1,3-dihydro-imidazo[4,5-c]quinolin-2-one] | 19 µm | 64 µm | 202 µm | – | – | – | – | – | – | – |
| COc1cc2ncc3c(c2cc1-c1cn(C)nc1C)n(-c1c(F)cncc1OC)c(=O)n3C (atropisomer, axis not shown; (Sa)) [Compound 1, 8-(1,3-Dimethyl-1H-pyrazol-4-yl)-1-(Sa)-(3-fluoro-5-methoxy-pyridin-4-yl)-7-methoxy-3-methyl-1,3-dihydro-imidazo[4,5-c]quinolin-2-one] | – | – | – | – | at lower concentrations | best microsomal clearance values | lowest inhibition | lowest inhibition | lowest inhibition | better selectivity |
